Source: US20090124644A1, “HIV INHIBITING 2-(4-CYANOPHENYLAMINO) PYRIMIDINE DERIVATIVES” (priority 2005, published 2009)

How the values were obtained:
Format in all cases: cell-based
[1] = tested on: Strain D, mutation Y188L in HIV reverse transcriptase; test: Antiviral spectrum, cellular assay, strain D; conditions: Human immunodeficiency virus 1, read-out: pEC50 D (converted)
Description: (§1) Because of the increasing emergence of drug resistant HIV strains, the present compounds were tested for their potency against clinically isolated HIV strains harboring several mutations. These mutations are associated with resistance to reverse transcriptase inhibitors and result in viruses that show various degrees of phenotypic cross-resistance to the currently commercially available drugs such as for instance AZT and delavirdine.
(§2) The antiviral activity of the compound of the present invention has been evaluated in the presence of wild type HIV and HIV mutants bearing mutations at the reverse transcriptase gene. The activity of the compounds is evaluated using a cellular assay and the residual activity is expressed in pEC50 values. The columns IIIB and A-G in the table list the pEC50 values against various strains IIIB, A-G.
(§3) Strain IIIB is wild type HIV-LAI strain Strain A contains mutation Y181C in HIV reverse transcriptase, Strain B contains mutation V106A in HIV reverse transcriptase, Strain C contains mutation L100I in HIV reverse transcriptase, Strain D contains mutation Y188L in HIV reverse transcriptase, Strain E contains mutations L100I and K103N in HIV reverse transcriptase, Strain F contains mutations K103N and Y181C in HIV reverse transcriptase.

[2] = tested on: Strain B, mutation V106A in HIV reverse transcriptase; test: Antiviral spectrum, cellular assay, strain B; conditions: Human immunodeficiency virus 1, read-out: pEC50 B (converted)
Description: as §1, §2, §3

[3] = tested on: Strain E, mutations L100I and K103N in HIV reverse transcriptase; test: Antiviral spectrum, cellular assay, strain E; conditions: Human immunodeficiency virus 1, read-out: pEC50 E (converted)
Description: as §1, §2, §3

[4] = tested on: Strain F, mutations K103N and Y181C in HIV reverse transcriptase; test: Antiviral spectrum, cellular assay, strain F; conditions: Human immunodeficiency virus 1, read-out: pEC50 F (converted)
Description: as §1, §2, §3

[5] = tested on: Strain A, mutation Y181C in HIV reverse transcriptase; test: Antiviral spectrum, cellular assay, strain A; conditions: Human immunodeficiency virus 1, read-out: pEC50 A (converted)
Description: as §1, §2, §3

[6] = tested on: Strain C, mutation L100I in HIV reverse transcriptase; test: Antiviral spectrum, cellular assay, strain C; conditions: Human immunodeficiency virus 1, read-out: pEC50 C (converted)
Description: as §1, §2, §3

[7] = tested on: Strain IIIB, wild type HIV-LAI strain; test: Antiviral spectrum, cellular assay, strain IIIB; conditions: Human immunodeficiency virus 1
Description: as §1, §2, §3

Row | SMILES | EC50 [1] [nM] | EC50 [2] [nM] | EC50 [3] [nM] | EC50 [4] [nM] | EC50 [5] [nM] | EC50 [6] [nM] | EC50 [7] [nM]
1 | N#Cc1ccc(Nc2nc(N)c(Br)c(Sc3c(C#N)cc(C#N)cc3C#N)n2)cc1 [Compound 2] | 3.98 | 3.16 | 7.94 | 20 | 15.8 | 20 | 3.16
2 | Cc1cc(C#N)cc(C)c1[S+]([O-])c1nc(Nc2ccc(C#N)cc2)nc(N)c1Br (stereo not drawn) [Compound 3] | 39.8 | 7.94 | 6310 | 251 | 79.4 | 1580 | 5.01
3 | Cc1cc(C#N)cc(C)c1Nc1nc(Nc2ccc(C#N)cc2)nc(N)c1Br [Compound 1] | 0.794 | 0.398 | 3.98 | 3.98 | 3.98 | 0.794 | 0.631
